# In US20130040882A1, “USE OF FIBROBLAST GROWTH FACTOR FRAGMENTS” (NOVARTIS AG, priority 2003, published 2013):
# System: uterine gene expression
# Experiment: Gene expression profiling (HGU133A) in the uterus of ovariectomized monkeys treated with estradiol, tamoxifen or raloxifene
# Format: in vivo, cynomolgus monkeys (Macaca fascicularis)
# Conditions: uterus; OVX monkeys
structure (smiles),measurement,value
C#C[C@]1(O)CC[C@H]2[C@@H]3CCc4cc(O)ccc4[C@H]3CC[C@@]21C [EE],"Fold change relative to OVX: ATPase, H+ transporting, lysosomal 38 kda, V0 subunit d isoform 1",1.9 fold
same,"Fold change relative to OVX: ATPase, Na+/K+ transporting, beta 3 polypeptide",2.2 fold
same,Fold change relative to OVX: Biglycan,1.9 fold
same,Fold change relative to OVX: CDC28 protein kinase regulatory subunit 2,3.8 fold
same,"Fold change relative to OVX: Cadherin 11, type 2, OB-cadherin (osteoblast)",3.4 fold
same,"Fold change relative to OVX: Calcium channel, voltage-dependent, beta 2 subunit",0.6 fold
same,"Fold change relative to OVX: Catenin (cadherin-associated protein), alpha-like 1",0.5 fold
same,Fold change relative to OVX: Chitinase 3-like 1 (cartilage glycoprotein-39),3.9 fold
same,Fold change relative to OVX: Chloride intracellular channel 4,1.7 fold
same,Fold change relative to OVX: Chondroitin sulfate proteoglycan 2 (versican),3.6 fold
same,"Fold change relative to OVX: Collagen, type I, alpha 1",6.6 fold
same,"Fold change relative to OVX: Collagen, type IV, alpha 2",3.3 fold
same,"Fold change relative to OVX: Collagen, type V, alpha 1",4.0 fold
same,"Fold change relative to OVX: Collagen, type VI, alpha 3",3.7 fold
same,"Fold change relative to OVX: Collagen, type VIII, alpha 2",2.1 fold
same,Fold change relative to OVX: Cyclin D1 (PRAD1: parathyroid adenomatosis 1),2.4 fold
same,"Fold change relative to OVX: Cysteine-rich, angiogenic inducer, 61",3.5 fold
same,Fold change relative to OVX: Cytochrome c oxidase subunit via polypeptide 1,1.5 fold
same,Fold change relative to OVX: Cytochrome c oxidase subunit viia polypeptide 2 (liver),1.8 fold
same,Fold change relative to OVX: Dermatopontin,1.9 fold
same,Fold change relative to OVX: Dishevelled associated activator of morphogenesis 1,3.1 fold
same,Fold change relative to OVX: Fibroblast growth factor 2 (basic),2.1 fold
same,Fold change relative to OVX: Fibulin 1,1.6 fold
same,Fold change relative to OVX: Four and a half LIM domains 2,3.0 fold
same,Fold change relative to OVX: G1 to S phase transition 1,1.6 fold
same,Fold change relative to OVX: Growth associated protein 43,2.0 fold
same,"Fold change relative to OVX: H2A histone family, member Y",1.4 fold
same,Fold change relative to OVX: Heparan sulfate proteoglycan 2 (perlecan),3.5 fold
same,Fold change relative to OVX: Histone H2A.F/Z variant,1.4 fold
same,"Fold change relative to OVX: Insulin-like growth factor binding protein 2, 36 kda",7.1 fold
same,Fold change relative to OVX: Insulin-like growth factor binding protein 5,5.2 fold
same,"Fold change relative to OVX: Integrin, beta 5",1.7 fold
same,"Fold change relative to OVX: Intercrine-alpha, mrna sequence",1.5 fold
same,Fold change relative to OVX: LDL receptor adaptor protein,0.6 fold
same,Fold change relative to OVX: LIM and senescent cell antigen-like domains 1,3.7 fold
same,"Fold change relative to OVX: Laminin, beta 1",1.4 fold
same,Fold change relative to OVX: Latent transforming growth factor beta binding protein 1,3.6 fold
same,Fold change relative to OVX: Matrix metalloproteinase 19,6.3 fold
same,Fold change relative to OVX: Mitogen-activated protein kinase kinase kinase kinase 4,0.6 fold
same,Fold change relative to OVX: Nidogen (enactin),3.6 fold
same,"Fold change relative to OVX: Osteoglycin (osteoinductive factor, mimecan)",2.2 fold
same,Fold change relative to OVX: Peroxiredoxin 1,1.9 fold
same,Fold change relative to OVX: Phosphatase and tensin homolog (mutated in multiple advanced cancers 1),1.8 fold
same,Fold change relative to OVX: Phospholipid transfer protein,2.0 fold
same,Fold change relative to OVX: Pituitary tumour-transforming 1 interacting protein,1.8 fold
same,Fold change relative to OVX: Procollagen C-endopeptidase enhancer,3.2 fold
same,"Fold change relative to OVX: Procollagen-proline, 2-oxoglutarate 4-dioxygenase (proline 4-hydroxylase), alpha polypeptide II",2.6 fold
same,Fold change relative to OVX: Progesterone receptor,9.7 fold
same,Fold change relative to OVX: Protein tyrosine kinase 9,2.1 fold
same,"Fold change relative to OVX: SET domain, bifurcated 1",3.0 fold
same,"Fold change relative to OVX: SPARC-like 1 (mast9, hevin)",2.4 fold
same,Fold change relative to OVX: Secreted frizzled-related protein 1,7.1 fold
same,Fold change relative to OVX: Secreted frizzled-related protein 4,4.2 fold
same,"Fold change relative to OVX: Secreted protein, acidic, cysteine-rich (osteonectin)",2.9 fold
same,"Fold change relative to OVX: Serine (or cysteine) proteinase inhibitor, clade H (heat shock protein 47), member 1, (collagen binding protein 1)",3.3 fold
same,"Fold change relative to OVX: Solute carrier family 22 (organic cation transporter), member 1-like",1.9 fold
same,"Fold change relative to OVX: Solute carrier family 25 (mitochondrial carrier; adenine nucleotide translocator), member 5",2.5 fold
same,Fold change relative to OVX: Stem cell growth factor; lymphocyte secreted C-type lectin,2.2 fold
same,Fold change relative to OVX: Tenascin C (hexabrachion),1.2 fold
same,Fold change relative to OVX: Testis Enhanced Gene Transcript (Bax Inhibitor 1),1.8 fold
same,Fold change relative to OVX: Thioredoxin interacting protein,0.3 fold
same,"Fold change relative to OVX: Transforming growth factor, beta-induced, 68 kda",1.7 fold
same,"Fold change relative to OVX: Ubiquinol-cytochrome c reductase, Rieske iron-sulfur polypeptide 1",1.4 fold
same,"Fold change relative to OVX: Wingless-type MMTV integration site family, member 2B",2.6 fold
same,"Fold change relative to OVX: Wingless-type MMTV integration site family, member 16",1.1 fold
same,"Fold change relative to SHAM control: ATPase, H+ transporting, lysosomal 38 kda, V0 subunit d isoform 1",1.6 fold
same,"Fold change relative to SHAM control: ATPase, Na+/K+ transporting, beta 3 polypeptide",1.2 fold
same,Fold change relative to SHAM control: Biglycan,0.7 fold
same,Fold change relative to SHAM control: CDC28 protein kinase regulatory subunit 2,2.3 fold
same,"Fold change relative to SHAM control: Cadherin 11, type 2, OB-cadherin (osteoblast)",2.1 fold
same,"Fold change relative to SHAM control: Calcium channel, voltage-dependent, beta 2 subunit",1.1 fold
same,"Fold change relative to SHAM control: Catenin (cadherin-associated protein), alpha-like 1",1.0 fold
same,Fold change relative to SHAM control: Chitinase 3-like 1 (cartilage glycoprotein-39),2.8 fold
same,Fold change relative to SHAM control: Chloride intracellular channel 4,0.9 fold
same,Fold change relative to SHAM control: Chondroitin sulfate proteoglycan 2 (versican),2.6 fold
same,"Fold change relative to SHAM control: Collagen, type I, alpha 1",2.4 fold
same,"Fold change relative to SHAM control: Collagen, type IV, alpha 2",1.9 fold
same,"Fold change relative to SHAM control: Collagen, type V, alpha 1",1.9 fold
same,"Fold change relative to SHAM control: Collagen, type VI, alpha 3",2.1 fold
same,"Fold change relative to SHAM control: Collagen, type VIII, alpha 2",1.2 fold
same,Fold change relative to SHAM control: Cyclin D1 (PRAD1: parathyroid adenomatosis 1),2.7 fold
same,"Fold change relative to SHAM control: Cysteine-rich, angiogenic inducer, 61",2.0 fold
same,Fold change relative to SHAM control: Cytochrome c oxidase subunit via polypeptide 1,1.3 fold
same,Fold change relative to SHAM control: Cytochrome c oxidase subunit viia polypeptide 2 (liver),1.8 fold
same,Fold change relative to SHAM control: Dermatopontin,1.1 fold
same,Fold change relative to SHAM control: Dishevelled associated activator of morphogenesis 1,2.0 fold
same,Fold change relative to SHAM control: Fibroblast growth factor 2 (basic),1.1 fold
same,Fold change relative to SHAM control: Fibulin 1,0.9 fold
same,Fold change relative to SHAM control: Four and a half LIM domains 2,1.9 fold
same,Fold change relative to SHAM control: G1 to S phase transition 1,1.3 fold
same,Fold change relative to SHAM control: Growth associated protein 43,0.8 fold
same,"Fold change relative to SHAM control: H2A histone family, member Y",1.2 fold
same,Fold change relative to SHAM control: Heparan sulfate proteoglycan 2 (perlecan),1.6 fold
same,Fold change relative to SHAM control: Histone H2A.F/Z variant,1.4 fold
